The target in one assay is T1, Caspase-3 (Homo sapiens, UniProt P42574).
T1 sequence (P42574 whole entry): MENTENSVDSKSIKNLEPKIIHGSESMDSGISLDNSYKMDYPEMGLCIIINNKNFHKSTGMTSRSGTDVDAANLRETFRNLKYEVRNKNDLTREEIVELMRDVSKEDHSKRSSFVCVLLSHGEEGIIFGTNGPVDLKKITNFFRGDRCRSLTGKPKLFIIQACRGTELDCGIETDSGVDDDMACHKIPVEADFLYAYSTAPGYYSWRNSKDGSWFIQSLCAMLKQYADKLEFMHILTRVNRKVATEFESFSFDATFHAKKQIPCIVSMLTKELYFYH
Put plainly: SAR Analysis of small molecule inhibitors of Sentrin-specific proteases (SENPs) using a Caspase-3 Selectivity assay. [Related pubchem assays (depositor defined):AID2540, AID2599, AID434973, AID489001]. It is filed as functional.

Assay [1] addresses T2, Sentrin-specific protease 8 (Homo sapiens, UniProt Q96LD8).
T2 sequence (Q96LD8 whole entry): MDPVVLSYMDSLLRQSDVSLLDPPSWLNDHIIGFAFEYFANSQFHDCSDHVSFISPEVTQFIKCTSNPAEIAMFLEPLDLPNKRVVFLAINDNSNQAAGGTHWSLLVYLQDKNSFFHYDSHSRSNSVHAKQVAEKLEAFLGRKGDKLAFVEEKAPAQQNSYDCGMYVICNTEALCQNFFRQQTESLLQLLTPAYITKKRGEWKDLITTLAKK
Put plainly: SENP8 protease inhibitors, SAR follow-up, biochemical, luminescence (AID 504501). It counts as functional.

Assay [2] deals with T3, Sentrin-specific protease 6 (Homo sapiens, UniProt Q9GZR1).
T3 sequence (Q9GZR1 whole entry): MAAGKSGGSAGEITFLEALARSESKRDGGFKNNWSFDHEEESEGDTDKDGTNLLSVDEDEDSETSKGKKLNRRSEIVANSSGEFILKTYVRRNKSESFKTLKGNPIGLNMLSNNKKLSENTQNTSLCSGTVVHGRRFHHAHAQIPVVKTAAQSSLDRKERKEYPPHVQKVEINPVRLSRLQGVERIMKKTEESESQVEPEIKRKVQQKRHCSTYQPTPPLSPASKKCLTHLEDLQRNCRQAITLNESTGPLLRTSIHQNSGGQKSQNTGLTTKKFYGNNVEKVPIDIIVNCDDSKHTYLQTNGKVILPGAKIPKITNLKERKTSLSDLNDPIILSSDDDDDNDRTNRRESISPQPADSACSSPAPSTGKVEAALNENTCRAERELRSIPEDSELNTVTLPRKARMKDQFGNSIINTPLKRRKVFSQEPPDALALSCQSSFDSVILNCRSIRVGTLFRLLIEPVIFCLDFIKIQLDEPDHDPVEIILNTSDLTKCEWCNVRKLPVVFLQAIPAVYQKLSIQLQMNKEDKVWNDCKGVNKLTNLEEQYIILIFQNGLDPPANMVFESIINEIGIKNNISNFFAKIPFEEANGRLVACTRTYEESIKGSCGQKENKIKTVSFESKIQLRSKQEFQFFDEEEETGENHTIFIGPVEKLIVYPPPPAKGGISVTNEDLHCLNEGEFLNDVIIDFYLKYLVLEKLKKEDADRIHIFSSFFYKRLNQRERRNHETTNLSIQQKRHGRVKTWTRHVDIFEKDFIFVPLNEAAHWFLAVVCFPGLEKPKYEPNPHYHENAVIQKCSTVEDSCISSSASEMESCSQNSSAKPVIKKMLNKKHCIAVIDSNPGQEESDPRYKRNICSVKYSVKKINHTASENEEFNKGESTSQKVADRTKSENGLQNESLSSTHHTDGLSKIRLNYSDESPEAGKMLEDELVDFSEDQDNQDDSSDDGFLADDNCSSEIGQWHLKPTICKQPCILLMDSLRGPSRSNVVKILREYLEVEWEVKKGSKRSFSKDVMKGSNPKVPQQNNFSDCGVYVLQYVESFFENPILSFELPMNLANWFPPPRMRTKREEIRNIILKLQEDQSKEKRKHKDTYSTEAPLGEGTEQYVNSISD
Put plainly: SAR Analysis of small molecule inhibitors of Sentrin-specific protease 6 (SENP6) using a Luminescent assay. [Related pubchem assays (depositor defined):AID2582, AID2599]. It counts as functional.

In assay [3] the target is T4, Sentrin-specific protease 7 (Homo sapiens, UniProt Q9BQF6).
T4 sequence (Q9BQF6 whole entry): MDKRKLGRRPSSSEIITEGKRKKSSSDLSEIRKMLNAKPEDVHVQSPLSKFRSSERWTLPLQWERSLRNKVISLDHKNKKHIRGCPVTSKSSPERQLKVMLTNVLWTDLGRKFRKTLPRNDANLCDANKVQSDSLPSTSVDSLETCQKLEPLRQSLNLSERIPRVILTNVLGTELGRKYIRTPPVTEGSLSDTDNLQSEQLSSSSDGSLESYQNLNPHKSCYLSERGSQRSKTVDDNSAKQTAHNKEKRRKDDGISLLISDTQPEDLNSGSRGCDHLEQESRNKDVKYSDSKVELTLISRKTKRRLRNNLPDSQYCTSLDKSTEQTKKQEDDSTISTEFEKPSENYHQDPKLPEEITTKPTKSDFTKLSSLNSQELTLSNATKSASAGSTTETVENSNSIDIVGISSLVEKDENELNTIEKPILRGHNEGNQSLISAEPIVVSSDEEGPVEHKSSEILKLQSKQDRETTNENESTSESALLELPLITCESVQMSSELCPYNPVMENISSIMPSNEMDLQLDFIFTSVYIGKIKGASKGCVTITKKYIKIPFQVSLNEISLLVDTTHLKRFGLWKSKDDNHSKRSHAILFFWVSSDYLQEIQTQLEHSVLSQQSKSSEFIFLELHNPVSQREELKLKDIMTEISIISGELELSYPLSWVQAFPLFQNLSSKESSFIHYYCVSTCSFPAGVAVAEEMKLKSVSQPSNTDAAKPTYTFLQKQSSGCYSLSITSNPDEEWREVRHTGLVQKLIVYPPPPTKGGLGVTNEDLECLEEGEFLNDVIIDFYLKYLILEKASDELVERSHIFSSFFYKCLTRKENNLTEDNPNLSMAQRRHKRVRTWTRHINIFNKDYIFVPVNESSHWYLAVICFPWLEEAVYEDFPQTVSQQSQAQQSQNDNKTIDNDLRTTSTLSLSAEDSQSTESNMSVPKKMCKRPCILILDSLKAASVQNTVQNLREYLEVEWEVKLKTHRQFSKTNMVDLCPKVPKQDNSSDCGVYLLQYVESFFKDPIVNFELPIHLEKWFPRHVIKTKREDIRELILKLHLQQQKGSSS
Put plainly: SENP7 protease inhibitors, SAR follow-up, biochemical, luminescence (AID 504497). It counts as functional.

In assay [4] the target is 72 kDa type IV collagenase (Homo sapiens, UniProt P08253). Put plainly: Dose Response validation of uHTS RPN11 inhibitor hits using a MMP-2 Fluorescence assay. It counts as functional.
72 kDa type IV collagenase, sequence (P08253 whole entry): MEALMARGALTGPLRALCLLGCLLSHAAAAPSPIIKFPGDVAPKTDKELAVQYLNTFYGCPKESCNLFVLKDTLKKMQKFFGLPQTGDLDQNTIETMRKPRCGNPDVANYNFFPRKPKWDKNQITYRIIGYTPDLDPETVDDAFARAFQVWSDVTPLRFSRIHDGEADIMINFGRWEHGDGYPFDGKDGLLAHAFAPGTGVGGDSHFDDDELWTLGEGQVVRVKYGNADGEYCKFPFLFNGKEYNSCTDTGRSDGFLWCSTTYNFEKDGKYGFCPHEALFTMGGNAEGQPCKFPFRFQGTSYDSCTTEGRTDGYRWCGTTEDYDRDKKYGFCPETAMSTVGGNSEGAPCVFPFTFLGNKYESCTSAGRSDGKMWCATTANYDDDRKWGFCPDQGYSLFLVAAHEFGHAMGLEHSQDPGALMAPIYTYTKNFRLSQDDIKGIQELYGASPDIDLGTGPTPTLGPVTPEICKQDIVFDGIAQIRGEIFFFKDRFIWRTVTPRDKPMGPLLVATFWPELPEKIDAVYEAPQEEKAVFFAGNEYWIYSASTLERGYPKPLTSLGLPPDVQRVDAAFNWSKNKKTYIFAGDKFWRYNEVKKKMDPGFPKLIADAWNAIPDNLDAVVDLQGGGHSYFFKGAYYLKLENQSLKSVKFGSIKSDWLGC
The next assay addresses Prothrombin (Bos taurus, UniProt P00735). Put plainly: thrombin inhibition, dose response, biochemical, fluorescence polarization, uHTS hits (AID 602369). It counts as functional.
Assay [5] deals with T5, Carboxy-terminal domain RNA polymerase II polypeptide A small phosphatase 1 (Homo sapiens, UniProt Q9GZU7).
T5 sequence (Q9GZU7 whole entry): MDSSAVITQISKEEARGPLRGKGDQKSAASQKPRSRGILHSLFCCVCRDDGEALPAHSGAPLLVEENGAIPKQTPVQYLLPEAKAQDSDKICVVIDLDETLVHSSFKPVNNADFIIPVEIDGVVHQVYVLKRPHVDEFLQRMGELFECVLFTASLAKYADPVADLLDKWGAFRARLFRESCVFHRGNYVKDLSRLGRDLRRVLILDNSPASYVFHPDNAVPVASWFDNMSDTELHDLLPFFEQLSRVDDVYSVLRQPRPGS
Put plainly: inhibitors of CTDSP1, concentration-response testing, biochemical assay, absorbance-based, actives from ultra-high-throughput screening (AID 540297). It counts as functional.

Assay [6] deals with 26S proteasome non-ATPase regulatory subunit 14 (Homo sapiens, UniProt O00487). Put plainly: inhibition of proteasome subunit RPN11 – biochemical, fluorescence polarization, uHTS hits, confirmation (AID 602368). It counts as functional.
26S proteasome non-ATPase regulatory subunit 14, sequence (O00487 whole entry): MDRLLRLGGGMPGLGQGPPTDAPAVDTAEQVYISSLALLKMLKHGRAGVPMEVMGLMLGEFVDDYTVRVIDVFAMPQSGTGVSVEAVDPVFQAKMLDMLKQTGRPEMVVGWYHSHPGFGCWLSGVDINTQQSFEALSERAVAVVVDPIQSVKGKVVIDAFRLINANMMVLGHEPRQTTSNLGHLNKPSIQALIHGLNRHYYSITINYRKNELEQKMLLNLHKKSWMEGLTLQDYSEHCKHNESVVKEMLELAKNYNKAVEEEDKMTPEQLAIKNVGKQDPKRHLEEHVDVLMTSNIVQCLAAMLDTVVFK
The nature of assay [7]: HepG2 cell cytotoxicity, dose response, cytotoxicity control for Shn3 inhibitor project, CellTiter-Glo, cherry-picked (AID 624134). It is filed as functional, cell-based.
The nature of assay [8]: cytotoxicity toward NIH3T3 fibroblasts, dose response, counter-screen, cell-based, ATP luminescence, mouse fibroblasts (AID 2010).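 Also: cells exposed to compound for about 90 hours before reading.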 It is filed as functional.
The nature of assay [9]: inhibitors of intracellular T. cruzi replication, confirmation, NIH3T3 host cells, beta-gal luminescence (AID 2044).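 Also: intracellular parasites grown in NIH/3T3 mouse fibroblasts as host cells; luminescent beta-galactosidase reporter signal from transgenic T. cruzi replicating inside host cells; inhibitors lower the luminescence signal.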 It counts as functional, cell-based.
The nature of assay [10]: Shn3 3'UTR reporter inhibitors, dose response, cell-based, Clone20 osteoblasts, firefly luciferase, cherry-picked (AID 624132).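 Also: firefly luciferase luminescence from reporter carrying the Shn3 3'UTR in osteoblasts.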 It is filed as functional.
For a further assay, the target named is Melanocortin receptor 4 (Homo sapiens, UniProt P32245). It counts as functional, cell-based.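 Also: Cell-based assay with luminescence read-out, confirmatory dose-response testing for agonist activity of biased ligands at MC4R; human U2OS cells with tagged receptor and beta-arrestin; potency of agonists that increase receptor coupling to beta-arrestin.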
Melanocortin receptor 4, sequence (P32245 whole entry): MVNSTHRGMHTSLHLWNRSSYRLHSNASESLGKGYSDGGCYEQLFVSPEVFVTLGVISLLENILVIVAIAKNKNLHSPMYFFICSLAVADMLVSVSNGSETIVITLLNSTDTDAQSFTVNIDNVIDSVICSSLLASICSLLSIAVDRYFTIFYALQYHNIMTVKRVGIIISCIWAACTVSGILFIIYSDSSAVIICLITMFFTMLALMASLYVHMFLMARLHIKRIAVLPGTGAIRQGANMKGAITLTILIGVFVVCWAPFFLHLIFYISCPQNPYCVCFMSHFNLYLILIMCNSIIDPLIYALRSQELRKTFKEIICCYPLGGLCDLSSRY
The nature of assay [11]: control 3'UTR Renilla luciferase suppression, dose response, counter-screen for Shn3 inhibitor project, cell-based, Clone20-Shn3RL, cherry-picked (AID 624133). It counts as functional.
For assay [12], the target named is T6, Endoribonuclease toxin MazF (Escherichia coli K-12, UniProt P0AE70).
T6 sequence (P0AE70 whole entry): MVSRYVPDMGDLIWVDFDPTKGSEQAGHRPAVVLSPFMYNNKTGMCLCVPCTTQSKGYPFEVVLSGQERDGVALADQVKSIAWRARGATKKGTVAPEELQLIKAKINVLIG
Put plainly: MazF toxin RNase activators, dose response, biochemical, fluorescence, single-stranded RNA substrate, uHTS hits (AID 588481). It counts as functional.

Assay [13] addresses T7, Corticotropin-releasing factor receptor 2/Corticotropin-releasing factor-binding protein (Homo sapiens, UniProt P24387+Q13324).
T7 sequence (Q13324 whole entry): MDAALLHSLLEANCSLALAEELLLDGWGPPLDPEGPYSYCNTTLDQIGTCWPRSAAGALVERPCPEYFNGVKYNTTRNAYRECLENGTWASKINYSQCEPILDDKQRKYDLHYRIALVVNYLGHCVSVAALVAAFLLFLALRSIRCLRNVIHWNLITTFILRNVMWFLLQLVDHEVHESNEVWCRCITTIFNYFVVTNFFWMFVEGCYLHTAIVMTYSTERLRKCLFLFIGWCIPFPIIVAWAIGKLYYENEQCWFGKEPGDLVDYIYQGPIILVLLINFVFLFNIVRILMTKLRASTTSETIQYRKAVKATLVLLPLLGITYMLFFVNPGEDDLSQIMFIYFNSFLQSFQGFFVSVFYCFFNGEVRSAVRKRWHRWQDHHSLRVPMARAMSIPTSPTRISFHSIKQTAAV
T7 sequence (P24387 whole entry): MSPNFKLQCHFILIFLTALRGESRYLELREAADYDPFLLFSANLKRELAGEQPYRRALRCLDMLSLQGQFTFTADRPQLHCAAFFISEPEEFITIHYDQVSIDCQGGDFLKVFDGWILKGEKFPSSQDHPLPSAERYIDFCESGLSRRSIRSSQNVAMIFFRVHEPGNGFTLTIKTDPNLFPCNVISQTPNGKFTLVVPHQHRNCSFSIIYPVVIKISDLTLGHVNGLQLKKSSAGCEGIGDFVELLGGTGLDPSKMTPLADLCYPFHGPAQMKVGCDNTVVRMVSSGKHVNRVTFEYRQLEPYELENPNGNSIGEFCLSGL
Put plainly: activators of CRF receptor 2 with binding protein – uHTS hits, confirmation (AID 602473). It counts as functional. Conditions: read-out: EC50_Mean.

Assay [14] has as its target T6, Endoribonuclease toxin MazF. Put plainly: fluorescent RNA oligo signal without MazF, dose response, counter-screen for MazEF activator project, biochemical, fluorescence, single-stranded RNase substrate (AID 588502). It is filed as functional.
Assay [15] concerns the target T8, Polyadenylate-binding protein 1 (Homo sapiens, UniProt P11940). Put plainly: PABP1 MLLE–PAM2 binding inhibitor potency, dose response, biochemical, fluorescence polarization, FITC-PAM2 peptide (AID 602259). It is filed as functional. Conditions: read-out: IC50_Mean.
In assay [16] the target is T8, Polyadenylate-binding protein 1. Put plainly: PABP1 MLLE–PAM2 interaction inhibitors, dose response, miRNA deadenylation inhibitor project, biochemical, fluorescence polarization, Cy5-PAM2 peptide, secondary (AID 602260). It is filed as functional. Conditions: read-out: IC50_Mean.
The target in assay [17] is Ras and Rab interactor 1/Tyrosine-protein kinase ABL1 (Homo sapiens, UniProt P00519+Q13671). It is filed as functional.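 Also: biochemical TR-FRET dose-response test measuring inhibition of binding between Rin1 and Abl proteins.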
Ras and Rab interactor 1/Tyrosine-protein kinase ABL1, sequence (P00519 whole entry): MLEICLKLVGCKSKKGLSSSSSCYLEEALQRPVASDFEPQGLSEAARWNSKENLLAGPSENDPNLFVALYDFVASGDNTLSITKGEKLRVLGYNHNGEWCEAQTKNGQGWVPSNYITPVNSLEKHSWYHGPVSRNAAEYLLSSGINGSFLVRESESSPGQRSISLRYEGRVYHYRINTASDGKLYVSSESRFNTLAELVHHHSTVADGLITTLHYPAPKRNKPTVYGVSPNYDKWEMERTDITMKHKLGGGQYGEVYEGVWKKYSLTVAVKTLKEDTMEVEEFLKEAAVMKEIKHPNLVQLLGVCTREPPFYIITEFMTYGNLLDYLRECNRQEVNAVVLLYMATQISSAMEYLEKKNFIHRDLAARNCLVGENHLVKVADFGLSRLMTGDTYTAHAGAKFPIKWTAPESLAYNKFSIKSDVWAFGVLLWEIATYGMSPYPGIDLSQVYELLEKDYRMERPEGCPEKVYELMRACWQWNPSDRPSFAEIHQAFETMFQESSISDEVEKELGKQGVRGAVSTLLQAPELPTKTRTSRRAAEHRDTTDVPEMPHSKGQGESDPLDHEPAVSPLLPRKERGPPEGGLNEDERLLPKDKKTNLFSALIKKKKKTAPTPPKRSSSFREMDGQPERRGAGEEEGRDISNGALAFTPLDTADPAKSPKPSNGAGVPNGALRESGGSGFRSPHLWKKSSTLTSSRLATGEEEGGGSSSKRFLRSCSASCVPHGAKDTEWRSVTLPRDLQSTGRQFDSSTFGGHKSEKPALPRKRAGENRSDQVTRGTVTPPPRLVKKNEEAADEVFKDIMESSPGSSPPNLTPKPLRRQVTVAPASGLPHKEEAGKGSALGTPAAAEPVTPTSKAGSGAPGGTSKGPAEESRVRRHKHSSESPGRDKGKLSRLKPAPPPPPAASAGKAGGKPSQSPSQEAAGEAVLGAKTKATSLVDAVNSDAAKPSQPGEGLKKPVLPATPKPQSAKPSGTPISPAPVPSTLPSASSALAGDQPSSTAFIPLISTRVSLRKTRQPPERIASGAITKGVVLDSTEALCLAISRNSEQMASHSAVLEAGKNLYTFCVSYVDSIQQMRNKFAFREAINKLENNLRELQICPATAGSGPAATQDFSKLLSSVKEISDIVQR
Ras and Rab interactor 1/Tyrosine-protein kinase ABL1, sequence (Q13671 whole entry): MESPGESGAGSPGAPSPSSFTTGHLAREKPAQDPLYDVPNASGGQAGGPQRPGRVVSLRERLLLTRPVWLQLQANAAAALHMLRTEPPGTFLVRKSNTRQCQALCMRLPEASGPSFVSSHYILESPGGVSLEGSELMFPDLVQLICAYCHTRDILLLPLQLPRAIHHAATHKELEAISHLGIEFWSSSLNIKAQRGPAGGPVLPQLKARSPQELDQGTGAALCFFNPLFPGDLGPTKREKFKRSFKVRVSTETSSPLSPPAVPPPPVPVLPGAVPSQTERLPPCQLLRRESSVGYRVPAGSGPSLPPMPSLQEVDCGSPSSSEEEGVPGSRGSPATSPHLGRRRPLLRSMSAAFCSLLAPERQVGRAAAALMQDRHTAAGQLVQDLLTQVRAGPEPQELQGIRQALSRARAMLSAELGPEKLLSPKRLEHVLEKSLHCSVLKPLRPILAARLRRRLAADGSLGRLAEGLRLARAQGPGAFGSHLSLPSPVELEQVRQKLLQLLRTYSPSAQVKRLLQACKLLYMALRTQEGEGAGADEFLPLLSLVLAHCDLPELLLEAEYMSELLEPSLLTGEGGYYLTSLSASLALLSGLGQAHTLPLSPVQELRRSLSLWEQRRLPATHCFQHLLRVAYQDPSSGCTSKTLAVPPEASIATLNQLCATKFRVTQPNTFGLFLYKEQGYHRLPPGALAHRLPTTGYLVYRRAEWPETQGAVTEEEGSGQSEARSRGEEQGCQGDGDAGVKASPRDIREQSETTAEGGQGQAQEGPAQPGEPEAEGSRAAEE

Active and inactive are the calls of the source. A value given as a limit tells only on which side of the number the result lay.

T8 sequence (P11940 whole entry): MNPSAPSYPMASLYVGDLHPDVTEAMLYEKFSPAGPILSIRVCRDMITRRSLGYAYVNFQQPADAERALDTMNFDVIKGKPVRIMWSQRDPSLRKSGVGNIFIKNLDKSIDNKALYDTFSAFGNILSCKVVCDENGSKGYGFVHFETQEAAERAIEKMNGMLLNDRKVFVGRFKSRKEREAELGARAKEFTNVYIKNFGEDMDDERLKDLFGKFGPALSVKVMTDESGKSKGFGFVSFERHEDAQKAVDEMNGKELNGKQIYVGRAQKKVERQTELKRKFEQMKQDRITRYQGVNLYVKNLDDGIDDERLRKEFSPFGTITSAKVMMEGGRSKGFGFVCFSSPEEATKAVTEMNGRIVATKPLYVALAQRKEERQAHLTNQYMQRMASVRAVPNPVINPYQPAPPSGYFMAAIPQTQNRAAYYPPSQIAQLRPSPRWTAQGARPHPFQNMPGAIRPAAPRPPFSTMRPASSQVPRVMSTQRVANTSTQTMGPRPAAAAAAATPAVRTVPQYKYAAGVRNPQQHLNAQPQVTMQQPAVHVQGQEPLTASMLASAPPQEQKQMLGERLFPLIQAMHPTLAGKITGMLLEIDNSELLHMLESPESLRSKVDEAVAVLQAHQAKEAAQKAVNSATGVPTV

On to `CC(=O)Nc1ccc2nc(-c3ccccc3)oc2c1`, for which the IC50 on Caspase-3 is 14.2 µM (active); in assay [1], 49.9 µM (active); in assay [2], 46.5 µM (active); in assay [3] it was 11.6 µM (active).
In the case of `Cc1ccc(NC(=O)CCc2nc(O)c3c4c(sc3n2)CCCC4)nc1`, the IC50 in assay [4] was > 100 µM (inactive); at Prothrombin, 55 µM (active); in [5], 5.1 µM (active); in assay [6] it was 23.1 µM (active).
Turning to `CC(C)(C)CC(=O)Nc1ccc(-c2nc3cc(Cl)ccc3o2)cc1`, the IC50 (on Caspase-3; in assay [1]; in assay [2]; in assay [3]) was > 99 µM (inactive) each time.
For `Cc1nc(SCc2nc3cc(Br)ccc3[nH]2)c2oc3ccccc3c2n1`, the figures for the IC50 (in assay [4]; at Prothrombin; in assay [6]) were > 100 µM (inactive), 40 µM (active) and 50 µM (active), respectively.
In the case of `COc1ccc(CNCCc2ccc(Cl)cc2)cc1OCc1ccccc1`, the AC50 in [7] was > 70 µM (inactive); in assay [10], 5.59 µM (active); in assay [11] it was 11.9 µM (active). For the same compound, the EC50 is > 60 µM (not active) in assay [8], < 0.1 µM (active) in assay [9], > 9.91 µM (active) on Melanocortin receptor 4 and 0.114 µM (active) in “cells”.
With `O=[N+]([O-])c1ccc(-c2cn3nc(-c4ccccc4)c(-c4ccccc4)nc3n2)cc1`, the values for the EC50 in assay [12], in assay [13] and in assay [14] were > 99 µM (inactive), > 53 µM (inactive) and > 99 µM (inactive), respectively.
As to `CCCCn1c2ccc(F)cc2c2nnc(SCCN3CCOCC3)nc21`, the IC50 in [15] and in assay [16] was > 66 µM (inactive) throughout.
Take `O=C(Nc1ccccc1N1CCN(C(=O)c2ccc(Cl)cc2)CC1)c1cccnc1`: in assay [17], the IC50 is 16.4 µM (inactive).
`CC(=O)Nc1cc2c(nc1C)nc(C)n2Cc1ccc(Br)cc1`: the IC50 in [17] was 15.5 µM (inactive).

For the origin of these results see ChEMBL document CHEMBL1201862, “PubChem BioAssay data set” (2004).
